The source of these data is patent publication US20150202224A1, “METHOD OF TREATING IRON DEFICIENCY ANEMIA” (Luitpold Pharmaceuticals, Inc., priority 2012, published 2015).

Like-named read-outs stand apart in the source and are kept apart here.

The conditions of series [1]: cited from earlier work.
Series [2] concerns subjects with iron deficiency anemia (IDA). In words: Randomized trial of ferric carboxymaltose vs. oral iron in non-responders to the oral iron run-in: hemoglobin levels. It counts as in vivo, human. Particulars: for Hemoglobin at baseline (Day 1), mean (SD): before randomized treatment, non-responders to oral iron run-in; for Hemoglobin change to Day 35, mean (SD) / Hemoglobin change to Day 35, median: change from baseline (Day 1) to Day 35; for percentage of subjects with a hemoglobin increase of ≧1 g/dL: non-responders to the oral iron run-in in whom hepcidin values were measured; for percentage of subjects with a hemoglobin increase of ≧1 g/dL / mean Hemoglobin increases / percentage of subjects with hemoglobin change ≧2 g/dL: after randomization; for mean Hemoglobin increases / percentage of subjects with hemoglobin change ≧2 g/dL: non-responders to the oral iron run-in. As for the experimental part: The following example describes hepcidin measurements obtained during a randomized, multi-center, controlled trial comparing the efficacy and safety of ferric carboxymaltose in subjects with iron deficiency anemia (IDA) (see generally, Szczech 2011).
(§1) Ferric carboxymaltose (Group A) was administered at a dose of 15 mg/kg to a maximum 750 mg per dose administered intravenously on Day 0 and Day 7. Oral iron was given as ferrous sulfate 325 mg three times a day for an additional 14 days starting on Day 0.
Hemoglobin levels and markers of iron status were assessed up to 35 days and measures of safety and tolerability were assessed up to 120 days. Hemoglobin levels and markers of iron status were assessed at screening (Day […]), Day 1, and Day 35.
(§2) The following example describes the randomized study of ferric carboxymaltose (FCM) vs. oral iron therapy on non-responders. Baseline (Day 1) and post-treatment (Day 35) levels of hepcidin and hemoglobin were compared.

A further series has as its system hepcidin. In words: Randomized trial of ferric carboxymaltose vs. oral iron in non-responders: serum hepcidin levels by C-ELISA. The class given is in vivo, human. Particulars: for Hepcidin on Day 35, mean (SD) / Hepcidin on Day 35, median / Hepcidin at baseline (Day 1), mean (SD) / Hepcidin at baseline (Day 1), median: non-responders to oral iron run-in; for Hepcidin at baseline (Day 1), mean (SD): before randomized treatment; for Hepcidin change to Day 35, mean (SD) / Hepcidin change to Day 35, median: change from baseline (Day 1) to Day 35; for change in hepcidin from baseline (Day 1) to Day 35, in words: non-responders to the oral iron run-in. As for the experimental part:
as §1
Hepcidin levels were analyzed from serum samples obtained at screening (Day […]) in an initial Analysis Group (I) of 44 subjects, 22 responders, and 22 non-responders. A hepcidin value of ≧20 ng/mL was identified as a cutoff for further study in the determination of predictive values for non-responsiveness to 14 day oral iron run-in in 240 subjects (Analysis Group II).
Hepcidin levels were also assessed after the oral iron run-in (Day 1) and after treatment with intravenous (IV) iron or oral iron post-randomization (Day 35). Hepcidin levels were measured using a commercially available competitive enzyme-linked immunosorbent assay (C-ELISA). Samples were collected by the investigator at the site, stored by a contract research organization (Covance, Indianapolis, Ind.) and sent to a commercial laboratory (Intrinsic LifeSciences, La Jolla, Calif.) for analysis.
as §2

In series [3] the test system is subjects with iron deficiency anemia (IDA). The note with it: Analysis Group II, ferrous sulfate 325 mg three times daily for 14 days.
Method: Eligibility for this trial included subjects≧18 years of age with hemoglobin≦11 g/dL and IDA of any etiology with ferritin≦100 ng/mL, or ≦300 ng/mL when transferrin saturation (TSAT) was ≦30%.
The following example describes the determination and comparison of hepcidin levels in 240 subjects with response to oral iron. Hepcidin and other iron indices were measured and compared. The objective of the study was to determine the baseline characteristics of the subject population and to compare levels of hepcidin, hemoglobin, and iron indices in responders and non-responders after a 14 day treatment of oral iron.
For series [4] the following is noted: in vivo; cited from earlier work.
A further series deals with rodents and dogs. The note with it: single dose; cited from earlier work.
A further series has as its system dogs and rats. The note with it: cumulative doses over 13 weeks, dose-related clinical signs of iron accumulation in liver, spleen, kidneys; cited from earlier work.
Another series deals with rabbit. Particulars: intra-arterial, perivenous or intravenous; cited from earlier work.
The conditions of series [5]: in vitro and in vivo; cited from earlier work.
The next series has as its system dextran antibodies. The note with it: cited from earlier work.
The mark [6] stands for this setting: listed as ferric carboxymaltose.

In the case of iron sucrose, in series [1] (in vivo, iv), the “injected amount still in the blood” value was 2 to 13% and the “projected calculated terminal half-life (t½)” value is 6 h.

For ferrous sulfate [Oral iron], in series [2], the “Hemoglobin on Day 35, mean (SD)” value is listed as 11.0 (1.3) g/dL; the “Hemoglobin on Day 35, median” value stood at 10.9 g/dL; the “Hemoglobin at baseline (Day 1), median” value is on record as 10.7 g/dL; the “Hemoglobin at baseline (Day 1), mean (SD)” value was 10.4 (1.2) g/dL. Further, in [2], the “Hemoglobin change to Day 35, mean (SD)” value is 0.6 (0.9) g/dL; the “Hemoglobin change to Day 35, median” value was 0.5 g/dL; the “percentage of subjects with a hemoglobin increase of ≧1 g/dL” value is reported as 20.8%; the “mean Hemoglobin increases” value is on record as 0.6±0.9 gm/dL. Besides, the “percentage of subjects with hemoglobin change ≧2 g/dL” value in [2] is 5.2%. The “Hemoglobin change to Day 35, mean (SD)” value in series [2] (listed as oral iron) came out at 0.6 g/dL. In the series on hepcidin, the “Hepcidin on Day 35, mean (SD)” value is listed as 29.0 (53.894) ng/mL; the “Hepcidin on Day 35, median” value is 10.5 ng/mL; the “Hepcidin at baseline (Day 1), mean (SD)” value is reported as 32.0 (44.314) ng/mL; the “Hepcidin at baseline (Day 1), median” value is given as 19.6 ng/mL. In addition, in the series with hepcidin, the “Hepcidin change to Day 35, mean (SD)” value is on record as −3.02 (41.793) ng/mL; the “Hepcidin change to Day 35, median” value was -6.0 ng/mL; the “change in hepcidin from baseline (Day 1) to Day 35, in words” value was “no significant change”. In the series with hepcidin (listed as oral iron), the “Hepcidin at baseline (Day 1), mean (SD)” value was found to be 32.03 ng/mL. The “hemoglobin change after the 14 day oral iron run-in, non-responders” value in series [3] (non-responders (Hb Δ <1 g/dL)) stood at 0.2 ± 0.4 g/dL. In [3] (responders (Hb Δ ≧1 g/dL)), the “hemoglobin change after the 14 day oral iron run-in, responders” value stood at 1.8 ± 0.6 g/dL.

With “polynuclear iron (III)-hydroxide 4(R)-(poly-(1→4)-O-α-glucopyranosyl)-oxy-2(R),3(S),5(R),6-tetrahydroxy-hexanoate [FCM]”, in [2], the “Hemoglobin on Day 35, mean (SD)” value is 12.0 (1.4) g/dL; the “Hemoglobin on Day 35, median” value is on record as 12.2 g/dL; the “Hemoglobin at baseline (Day 1), median” value was 10.4 g/dL; the “Hemoglobin at baseline (Day 1), mean (SD)” value was 10.3 (1.1) g/dL. Besides, in [2], the “Hemoglobin change to Day 35, mean (SD)” value is 1.7 (1.3) g/dL; the “Hemoglobin change to Day 35, median” value is reported as 1.7 g/dL; the “percentage of subjects with a hemoglobin increase of ≧1 g/dL” value is on record as 65.3%; the “mean Hemoglobin increases” value is given as 1.7±1.3 gm/dL. Also, the “percentage of subjects with hemoglobin change ≧2 g/dL” value in series [2] was 37.5%. In addition, the “Hemoglobin change to Day 35, mean (SD)” value in series [2] (setting [6]) came to 1.7 g/dL. In the series on hepcidin, the “Hepcidin on Day 35, mean (SD)” value is on record as 160.5 (181.543) ng/mL; the “Hepcidin on Day 35, median” value is on record as 112.6 ng/mL; the “Hepcidin at baseline (Day 1), mean (SD)” value is on record as 39.2 (92.236) ng/mL; the “Hepcidin at baseline (Day 1), median” value worked out at 2.5 ng/mL. In the series with hepcidin, the “Hepcidin change to Day 35, mean (SD)” value is recorded as 121.35 (115.977) ng/mL; the “Hepcidin change to Day 35, median” value is recorded as 91.9 ng/mL; the “change in hepcidin from baseline (Day 1) to Day 35, in words” value was “significant increase”. Also, in the series on hepcidin (setting [6]), the “Hepcidin on Day 35, mean (SD)” value turned out to be 160.51 ng/mL; the “Hepcidin at baseline (Day 1), mean (SD)” value was determined as 39.15 ng/mL; the “Hepcidin change to Day 35, mean (SD)” value amounted to 121.35 ng/mL. In addition, the “acute toxicity relative to iron sucrose” value in series [4] was “one-fifth that of iron sucrose”. Also, the “safe and tolerated intravenous dose as multiple of the equivalent of an intravenous infusion of 1,000 mg iron once weekly in humans” value with rodents and dogs is recorded as “up to 60 times”. In addition, in the series with dogs and rats, the “no observed adverse effect level, cumulative dose” value is on record as “up to 117 mg iron/kg body weight”. In addition, in the series with rabbit, the “treatment-related local tissue irritation” value was “No treatment-related local tissue irritation was observed”. In addition, in series [5], the mutagenicity entry is on record as “no evidence that FCM is clastogenic, mutagenic, or causes chromosomal damage or bone marrow cell toxicity”. Also, in the series with dextran antibodies, the “reaction with dextran antibodies” value is given as “does not react with dextran antibodies” and the “specific responses in a dextran antigenicity test” value was “no specific responses”. For the same substance, the “injected amount still in the blood” value in series [1] (eight hours after intravenous administration) is 5 to 20%. Further, the “projected calculated terminal half-life (t½)” value in [1] (intravenous) is recorded as “approximately 16 hours”.
